Reference: PMC3301443 (Scientific Reports, 2012)

Key:
KDHba = assay type: biochemical, Burkholderia ambifaria; details: aldehyde oxidation
PadA = molecular target: T1, PadA (Escherichia coli, UniProt P80668); experiment: in vitro enzyme kinetics; assay type: biochemical; details: aldehyde oxidation
T1 sequence (P80668 1-499): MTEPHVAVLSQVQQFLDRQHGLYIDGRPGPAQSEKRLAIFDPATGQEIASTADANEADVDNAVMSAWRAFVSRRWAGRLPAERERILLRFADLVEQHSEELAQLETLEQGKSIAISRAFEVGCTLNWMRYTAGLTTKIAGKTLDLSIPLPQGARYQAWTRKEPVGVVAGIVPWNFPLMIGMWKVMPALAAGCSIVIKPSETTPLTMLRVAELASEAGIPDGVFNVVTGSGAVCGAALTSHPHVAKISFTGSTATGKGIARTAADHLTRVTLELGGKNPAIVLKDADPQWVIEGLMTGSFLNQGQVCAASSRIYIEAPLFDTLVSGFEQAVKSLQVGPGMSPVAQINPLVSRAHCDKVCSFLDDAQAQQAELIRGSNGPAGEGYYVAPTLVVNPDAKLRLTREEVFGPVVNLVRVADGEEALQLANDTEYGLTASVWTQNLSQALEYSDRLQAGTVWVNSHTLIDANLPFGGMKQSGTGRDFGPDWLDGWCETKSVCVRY

Compound	Km (KDHba)	Km (PadA)
CC(C)C=O [isobutanal]	34500 µM	
CC(C)CCC=O [isohexanal]	520 µM	
CC(C)CC=O [isopentanal]		1950 µM
